Patent US9708314B2, “Heterocyclic amide compound” (NISSAN CHEMICAL INDUSTRIES, LTD., priority 2013, dated 2017)

How the values were obtained:
Type in all cases: in vivo
Leptochloa chinensis = assay: Test Example 3: herbicidal effect by application to foliage (Wagner pot, water depth 0.1-0.5 cm); conditions: Nineteenth Table, application to foliage
Summary of the method: (§1)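 Visual 0–5 rating of herbicidal ratio, taken 3 weeks after foliar spray of a diluted emulsion formulation at rates expressed as g/ha. Plants had been sown in alluvial soil under 0.1–0.5 cm water and grown 14 days at 25–30 °C under glass before application.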

[1] = system: Echinochloa crus-galli var. crus-galli; assay: as above; conditions: Nineteenth Table, application to foliage
Summary of the method: as §1

[2] = system: directly sowed Oryza sativa; assay: Test Example 3: effect on crop by application to foliage (Wagner pot, water depth 0.1-0.5 cm); conditions: Nineteenth Table, application to foliage
Summary of the method: as §1

Digitaria ciliaris = assay: Test Example 4: herbicidal effect by application to foliage (diluvial soil, plastic box); conditions: application to foliage
Summary of the method: (§2)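 Plants were grown in sterilized diluvial soil in a greenhouse at 25-30° C for 14 days, then sprayed on stems and leaves with water-diluted emulsion formulation at set rates in g/ha. Weed control and crop injury were scored 3 weeks after treatment on a 0-5 herbicidal-ratio scale, from 0 (≤5%) to 5 (≥90%).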

Abutilon theophrasti = assay: as above; conditions: application to foliage
Summary of the method: as §2

Lolium multiflorum Lam. = assay: as above; conditions: application to foliage
Summary of the method: as §2

Veronica persica = assay: as above; conditions: application to foliage
Summary of the method: as §2

Galium spurium = assay: as above; conditions: application to foliage
Summary of the method: as §2

[3] = system: Echinochloa crus-galli var. crus-galli; assay: as above; conditions: application to foliage
Summary of the method: as §2

Stellaria media = assay: as above; conditions: application to foliage
Summary of the method: as §2

Avena fatua = assay: as above; conditions: application to foliage
Summary of the method: as §2

Apera spica-venti. = assay: as above; conditions: application to foliage
Summary of the method: as §2

Amaranthus retroflexus = assay: as above; conditions: application to foliage
Summary of the method: as §2

Setaria viridis = assay: as above; conditions: application to foliage
Summary of the method: as §2

Chenopodium album = assay: as above; conditions: application to foliage
Summary of the method: as §2

Alopecurus myosuroides = assay: as above; conditions: application to foliage
Summary of the method: as §2

[4] = application herbicide amount 320 g/ha
[5] = application herbicide amount 260 g/ha

Structure (SMILES)	D (herbicidal effect grade) (Leptochloa chinensis; [4])	H (herbicidal effect grade) [1, 4]	b (effect on crop grade) [2, 4]	herbicidal effect, F (Digitaria ciliaris) (Digitaria ciliaris; 320 g/ha)	herbicidal effect, M (Abutilon theophrasti) (Abutilon theophrasti; 320 g/ha)	herbicidal effect, K (Lolium multiflorum Lam.) (Lolium multiflorum Lam.; 320 g/ha)	herbicidal effect, R (Veronica persica) (Veronica persica; 320 g/ha)	herbicidal effect, Q (Galium spurium) (Galium spurium; 320 g/ha)	herbicidal effect, H (Echinochloa crus-galli var. crus-galli) ([3]; 320 g/ha)	herbicidal effect, P (Stellaria media) (Stellaria media; 320 g/ha)	herbicidal effect, I (Avena fatua) (Avena fatua; 320 g/ha)	herbicidal effect, L (Apera spica-venti.) (Apera spica-venti.; 320 g/ha)	herbicidal effect, N (Amaranthus retroflexus) (Amaranthus retroflexus; 320 g/ha)	herbicidal effect, G (Setaria viridis) (Setaria viridis; 320 g/ha)	herbicidal effect, O (Chenopodium album) (Chenopodium album; 320 g/ha)	herbicidal effect, J (Alopecurus myosuroides) (Alopecurus myosuroides; 320 g/ha)	further results
C#CCSc1nnc2c(C(=O)Nc3nnnn3C)ccc(C(F)(F)F)n12 [2-103]	5 (Herbicidal ratio of 90% or more (almost completely withered))	5 (Herbicidal ratio of 90% or more (almost completely withered))	1 (Herbicidal ratio of 5% or more and less than 20%)	4 (Herbicidal ratio of 70% or more and less than 90%)	4 (Herbicidal ratio of 70% or more and less than 90%)	1 (Herbicidal ratio of 5% or more and less than 20%)	4 (Herbicidal ratio of 70% or more and less than 90%)	4 (Herbicidal ratio of 70% or more and less than 90%)	5 (Herbicidal ratio of 90% or more (almost completely withered))	5 (Herbicidal ratio of 90% or more (almost completely withered))	1 (Herbicidal ratio of 5% or more and less than 20%)	2 (Herbicidal ratio of 20% or more and less than 40%)	5 (Herbicidal ratio of 90% or more (almost completely withered))	3 (Herbicidal ratio of 40% or more and less than 70%)	5 (Herbicidal ratio of 90% or more (almost completely withered))	0 (Herbicidal ratio of 5% or less (almost no effect))	–
CC#Cc1nnc2c(C(=O)Nc3nnnn3C)ccc(C(F)(F)F)n12 [2-106]	2 (Herbicidal ratio of 20% or more and less than 40%)	1 (Herbicidal ratio of 5% or more and less than 20%)	0 (Herbicidal ratio of 5% or less (almost no effect))	3 (Herbicidal ratio of 40% or more and less than 70%)	5 (Herbicidal ratio of 90% or more (almost completely withered))	0 (Herbicidal ratio of 5% or less (almost no effect))	3 (Herbicidal ratio of 40% or more and less than 70%)	3 (Herbicidal ratio of 40% or more and less than 70%)	3 (Herbicidal ratio of 40% or more and less than 70%)	4 (Herbicidal ratio of 70% or more and less than 90%)	1 (Herbicidal ratio of 5% or more and less than 20%)	0 (Herbicidal ratio of 5% or less (almost no effect))	4 (Herbicidal ratio of 70% or more and less than 90%)	1 (Herbicidal ratio of 5% or more and less than 20%)	5 (Herbicidal ratio of 90% or more (almost completely withered))	0 (Herbicidal ratio of 5% or less (almost no effect))	–
CC(=O)OCc1nnc2c(C(=O)Nc3nnnn3C)ccc(C(F)(F)F)n12 [2-107]	5 (Herbicidal ratio of 90% or more (almost completely withered))	4 (Herbicidal ratio of 70% or more and less than 90%)	4 (Herbicidal ratio of 70% or more and less than 90%)	5 (Herbicidal ratio of 90% or more (almost completely withered))	5 (Herbicidal ratio of 90% or more (almost completely withered))	0 (Herbicidal ratio of 5% or less (almost no effect))	5 (Herbicidal ratio of 90% or more (almost completely withered))	4 (Herbicidal ratio of 70% or more and less than 90%)	5 (Herbicidal ratio of 90% or more (almost completely withered))	5 (Herbicidal ratio of 90% or more (almost completely withered))	1 (Herbicidal ratio of 5% or more and less than 20%)	0 (Herbicidal ratio of 5% or less (almost no effect))	5 (Herbicidal ratio of 90% or more (almost completely withered))	3 (Herbicidal ratio of 40% or more and less than 70%)	5 (Herbicidal ratio of 90% or more (almost completely withered))	0 (Herbicidal ratio of 5% or less (almost no effect))	–
Cn1nnnc1NC(=O)c1ccc(C(F)(F)F)n2c(CO)nnc12 [2-108]	5 (Herbicidal ratio of 90% or more (almost completely withered))	4 (Herbicidal ratio of 70% or more and less than 90%)	4 (Herbicidal ratio of 70% or more and less than 90%)	4 (Herbicidal ratio of 70% or more and less than 90%)	5 (Herbicidal ratio of 90% or more (almost completely withered))	0 (Herbicidal ratio of 5% or less (almost no effect))	5 (Herbicidal ratio of 90% or more (almost completely withered))	4 (Herbicidal ratio of 70% or more and less than 90%)	5 (Herbicidal ratio of 90% or more (almost completely withered))	5 (Herbicidal ratio of 90% or more (almost completely withered))	1 (Herbicidal ratio of 5% or more and less than 20%)	0 (Herbicidal ratio of 5% or less (almost no effect))	5 (Herbicidal ratio of 90% or more (almost completely withered))	3 (Herbicidal ratio of 40% or more and less than 70%)	5 (Herbicidal ratio of 90% or more (almost completely withered))	0 (Herbicidal ratio of 5% or less (almost no effect))	–
Cn1nnnc1NC(=O)c1ccc(C(F)(F)F)n2c(C=O)nnc12 [2-109]	–	–	–	–	–	–	–	–	–	–	–	–	–	–	–	–	D (herbicidal effect grade) (Leptochloa chinensis; [5]): 5 (Herbicidal ratio of 90% or more (almost completely withered)); H (herbicidal effect grade) [1, 5]: 3 (Herbicidal ratio of 40% or more and less than 70%); b (effect on crop grade) [2, 5]: 2 (Herbicidal ratio of 20% or more and less than 40%); herbicidal effect, F (Digitaria ciliaris) (Digitaria ciliaris; 256 g/ha): 3 (Herbicidal ratio of 40% or more and less than 70%); herbicidal effect, M (Abutilon theophrasti) (Abutilon theophrasti; 256 g/ha): 5 (Herbicidal ratio of 90% or more (almost completely withered)); herbicidal effect, K (Lolium multiflorum Lam.) (Lolium multiflorum Lam.; 256 g/ha): 1 (Herbicidal ratio of 5% or more and less than 20%); herbicidal effect, R (Veronica persica) (Veronica persica; 256 g/ha): 5 (Herbicidal ratio of 90% or more (almost completely withered)); herbicidal effect, Q (Galium spurium) (Galium spurium; 256 g/ha): 3 (Herbicidal ratio of 40% or more and less than 70%); herbicidal effect, H (Echinochloa crus-galli var. crus-galli) ([3]; 256 g/ha): 4 (Herbicidal ratio of 70% or more and less than 90%); herbicidal effect, P (Stellaria media) (Stellaria media; 256 g/ha): 5 (Herbicidal ratio of 90% or more (almost completely withered)); herbicidal effect, I (Avena fatua) (Avena fatua; 256 g/ha): 1 (Herbicidal ratio of 5% or more and less than 20%); herbicidal effect, L (Apera spica-venti.) (Apera spica-venti.; 256 g/ha): 0 (Herbicidal ratio of 5% or less (almost no effect)); herbicidal effect, N (Amaranthus retroflexus) (Amaranthus retroflexus; 256 g/ha): 5 (Herbicidal ratio of 90% or more (almost completely withered)); herbicidal effect, G (Setaria viridis) (Setaria viridis; 256 g/ha): 2 (Herbicidal ratio of 20% or more and less than 40%); herbicidal effect, O (Chenopodium album) (Chenopodium album; 256 g/ha): 5 (Herbicidal ratio of 90% or more (almost completely withered)); herbicidal effect, J (Alopecurus myosuroides) (Alopecurus myosuroides; 256 g/ha): 0 (Herbicidal ratio of 5% or less (almost no effect))
